These results are taken from patent publication US9051240B2, “Substituted 2-[2-(phenyl) ethylamino] alkaneamide derivatives and their use as sodium and/or calcium channel modulators” (Newron Pharmaceuticals S.P.A., priority 2007, dated 2015).

Structures can show the parent of a compound that is named as a salt. Where two headings read alike, the source gives them in different places.

One assay relates to TTXs sodium channels. Description: TTXs-sodium channel influx assay (fluorescence, ND7/23 cell line). Type of assay: cell-based, rat. The note with it: ND7/23 cells, veratridine 100 μM; read-out: Na+ influx IC50. The protocol:
ND7/23 rat dorsal root ganglion-derived cell line endogenously expresses a mixed population of TTXs sodium channels. These cells lack of TTXr sodium channels as shown by the absence of their respective transcripts.
ND7/23 cells were grown in DMEM supplemented with 10% FBS and 1 mM sodium piruvate. The cells were seeded at 50,000 cells/well on 96 poly-L-lysine-coated plates and further incubated for 18-24 h before use.
The Membrane Potential Kit Assay (Molecular Devices), based on a negatively charged fluorescent dye able to monitor changes in membrane potential caused by the sodium influx due to the channel opening, was used for the assay.
Cells were incubated with the dye loading for 30 minutes at 25° C. Then, 100 nM of the toxin Anemonia sulcata (used as enhancer of the channel opener response) alone or in the presence of TTX (as reference standard) or test compound were added for further 15 minutes.
The fluorescence (excitation:530 nm, emission: 565 nm wavelength) was measured before and after (40-45 s) the automated injection of the sodium channel opener veratridine (100 μM) using a Victor plate reader (Perkin Elmer).
(§1) The inhibition curves were calculated from 5 concentrations, each in triplicate, and the IC50 determined using linear regression analysis.

A further assay concerns mice. The experiment in a line: Maximal electroshock test (MES) in mice. The format is in vivo. To be noted: for ED50: Mus musculus, po, read-out: ED50 (mg/kg p.o.). The source says: The maximal electroshock test (MES) is used commonly in the screening of anti-epileptic drugs in rodent models.
Animals and Apparatus: Male CD1 mice weighing 25 g were used. The procedure described by White et al. (White H. S., Woodhead J. H., Franklin M. R., Swinyard E. A., and Wolf H. H. Antiepileptic Drugs (1995) 4th ed: 99-110, Raven Press, Ltd., New York) was followed. An Ugo Basile electroconvulsive generator (Model ECT UNIT 7801) was used to deliver an electrical stimulus sufficient to produce a hindlimb tonic extensor response in at least 97% of control animals. The stimulus was delivered intra-aurally through clip electrodes in mice (0.7 s of a 40 mA shock, with a pulse train of 80 Hz having a pulse duration of 0.4 ms). The acute effect of compounds administered intraperitoneally (i.p.), subcutaneously (s.c.), intravenously (i.v.) or orally (p.o.) 5-120 minutes before MES induction were examined and compared with a vehicle control group. Ten mice were studied per group. Complete suppression of the hindlimb tonic extensor component of seizures was taken as evidence of anticonvulsant activity.
The compounds of the invention were administered p.o. or i.v., at the doses of 0.1-100 mg/kg.
For orientation: In the maximal electroshock model the usual endpoint is tonic extension of the hind limbs.

The next assay concerns the target MAO-B (Rattus norvegicus (Rat), UniProt P19643). Description: In vitro MAO-B enzyme activity assay (radioenzymatic, rat brain mitochondria). Type of assay: biochemical. The note with it: 14C-PEA 0.5 μM. The protocol:
Male Wistar rats (Harlan, Italy weighing 175-200 g) were sacrificed under light anaesthesia and brains were rapidly removed and homogenized in 8 volumes of ice-cold 0.32 M sucrose buffer containing 0.1 M EDTA, pH 7.4. The crude homogenate was centrifuged at 2220 rpm for 10 minutes and the supernatant recovered. The pellet was homogenized and centrifuged again. The two supernatants were pooled and centrifuged at 9250 rpm for 10 minutes at +4° C. The pellet was resuspended in fresh buffer and centrifuged at 11250 rpm for 10 minutes at +4° C. The resulting pellet was stored at −80° C. The enzyme activity was assessed with a radioenzymatic assay using the substrate ^14C-phenylethylamine (PEA) specific for MAO-B. The mitochondrial pellet (500 μg protein) was resuspended in 0.1 M phosphate buffer (pH 7.4). 200 μl of the suspension were added to a 50 μl solution of the test compound or buffer, and incubated for 30 min at 37° C. (preincubation) then the substrate (50 μl) was added. The incubation was carried out for 10 minutes at 37° C. (^14C-PEA, 0.5 μM). The reaction was stopped by adding 0.2 ml of perchloric acid. After centrifugation, the deaminated metabolites were extracted with 3 ml of toluene and the radioactive organic phase containing the neutral and/or acidic metabolites formed as a result of MAO-B activity was measured by liquid scintillation spectrometry at 90% efficiency. The MAO-B activity was expressed as nmoles of substrate transformed/mg protein/min.

For assay [1], the system named is Na+ currents in ND7/23 cells (TTX-s). The experiment in a line: Patch clamp evaluation of Na+ currents blockade in ND7/23 cell line. The format is cell-based, rat. To be noted: for Ki: calculated from Kr and Kdep, read-out: Ki (apparent affinity for the inactivated state). The protocol:
ND7/23 (ECACC No 92090903 from SIGMA), is a hybrid cell line derived from a neonatal rat DRG fused with the mouse neuroblastoma N18Tg2 (Wood et al., Proc. Biol. Sci., 1990 September, 241(1302), 187-194).
The molecular identity of the channels responsible for the TTX-s conductance is unknown but it is presumed that TTX-s conductance arises from the activity of a mixed population of sodium channels.
Cells are routinously maintained in DMEM with 10% of FBS, 4 mM glutamine, 1 mM sodium piruvate. The day before the patch clamp experiment cells are detached and seeded at 100,000 cells/polylysine-coated 35 mm Petri dish.
Experiments on ND7/23 cells were carried out using standard whole cell patch clamp methods (Hamill et al., Pfugers Arch., 1981 August, 391(12), 85-100), as described in previous section.
To test the effect of compounds on sodium currents in ND7/23 cells, holding membrane potential was set at −90 mV, then a two step protocol was used to determine the voltage dependence of the block. Sodium currents were activated by a 30 ms step pulse to 0 mV (test pulse) from a 2000 ms preconditioning potential of −110 mV (resting condition) and a potential of ˜−70 mV (half maximal steady-state condition).
Tonic block of resting and depolarized currents at a given drug concentration was calculated as the difference between the peak Na^+ current in the control external bath solution and peak currents with the test substance divided by control peak.
Drug concentration-inhibition curves were obtained by plotting tonic blocks in the resting and depolarized condition, versus drug concentrations. Dose-response curves were fitted to the tonic block data, according to the logistic equation: y=A2+(A1−A2)/[1+(x/IC50)p]. A1 and A2 are fixed values of 0 and 1 corresponding to 0 and 100% current inhibition, x is the drug concentration, IC50 is the drug concentration resulting in 50% current inhibition and p is the corresponding slope factor.
The apparent affinity of drug for the inactivated state (Ki) was calculated according to the equation 1/Kdep=h/Kr+(1−h)/Ki where Kr is the affinity of drug for the resting/closed state; Kdep is the IC50 in the depolarized condition, h and (1−h) are the fractions of channels present at the rest. and dep. potentials, respectively.
Control bath solution contained (mM): NaCl 80, Choline HCl 40, CaCl2 1.3, MgCl2 2, KCl 2, CdCl2 0.4, NiCl2 0.3, TEACl 20, Hepes 10, Glucose 10.
Internal pipette solution consisted of (mM): CsF 65, CsCl 65, NaCl 10, CaCl2 1.3, MgCl2 2, Hepes 10, EGTA 10, MgATP 1.
Compounds were dissolved as stock solutions (20 mM) in DMSO. They were diluted to the final concentrations in the external solution.

For the next assay, the system named is L-type calcium channels. Description: Calcium channel influx assay (fluorescence, AtT20 cell line). Type of assay: cell-based, mouse. The note with it: AtT20 cells, 100 mM KCl depolarization; read-out: Ca++ influx IC50. The protocol:
AtT20/D16v-F2 mouse pituitary tumour cell line preferentially expresses L-type calcium channels.
AtT20 cells were grown in DMEM with 10% of FBS, 4 mM glutamine. The cells were seeded at 200,000 cells/well on 96 poly-L-lysine-coated plates and further incubated for 18-24 h, before use.
The Ca^++ Kit Assay (Molecular Devices), which is based on a fluorescent calcium indicator to detect the calcium influx determined by depolarizing conditions, was used for the assay.
Cells were incubated with the calcium dye loading for 30 min at 37° C. Then, ω-conotoxin alone (1 μM) or in presence of nifedipine (as reference standard) or test compound were added for further 15 min.
The fluorescence (excitation: 485-emission: 535 nm wavelength) was measured before and after (30-40 sec) the automated injection of 100 mM KCl depolarizing solution using a Victor plate reader (Perkin Elmer).
as §1

Setting [2] is: read-out: IC50 depolarized, preconditioning potential ~-70 mV.
Setting [3] is: read-out: IC50 resting (Kr), preconditioning potential -110 mV.

Chain of MAO-B (P19643 whole entry): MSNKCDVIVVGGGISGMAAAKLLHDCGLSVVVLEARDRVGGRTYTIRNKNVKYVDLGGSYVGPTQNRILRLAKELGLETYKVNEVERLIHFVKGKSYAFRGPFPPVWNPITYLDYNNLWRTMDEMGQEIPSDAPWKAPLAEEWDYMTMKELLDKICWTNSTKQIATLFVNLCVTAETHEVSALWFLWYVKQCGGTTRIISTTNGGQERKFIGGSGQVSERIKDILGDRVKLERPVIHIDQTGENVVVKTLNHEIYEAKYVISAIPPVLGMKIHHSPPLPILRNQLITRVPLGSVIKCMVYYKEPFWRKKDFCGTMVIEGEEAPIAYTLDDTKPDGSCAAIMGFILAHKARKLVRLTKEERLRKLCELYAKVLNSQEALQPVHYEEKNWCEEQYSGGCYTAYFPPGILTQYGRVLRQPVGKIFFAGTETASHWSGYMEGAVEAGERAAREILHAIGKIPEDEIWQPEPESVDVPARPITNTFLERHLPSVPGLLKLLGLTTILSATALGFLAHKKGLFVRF

Take `CCCCOc1ccc(F)c(CCNCC(=O)N(C)C)c1F.Cl` [2-[2-(3-Butoxy-2,6-difluorophenyl)-ethylamino]-N,N-dimethylacetamide hydrochloride]: the IC50 is 2600 nM in the assay with TTXs sodium channels and above 300000 nM against MAO-B. Further, the ED50 with mice (mice, MES, p.o.) is 2 mg/kg. In addition, in the assay on mice (mice, MES), the “% protection 10 mg/kg p.o.” value is on record as 100%.
As to `CCCCOc1cccc(CCNCC(=O)N(C)C)c1F` [2-[2-(3-Butoxy-2-fluorophenyl)-ethylamino]-N,N-dimethylacetamide], the Ki in assay [1] was 1000 nM. The IC50 in assay [1] (setting [2]) was 1700 nM; in assay [1] (setting [3]) it was 13000 nM.
The compound `CCCCOc1cc(CCNCC(=O)N(C)C)ccc1OC` [2-[2-(3-Butoxy-4-methoxyphenyl)-ethylamino]-N,N-dimethylacetamide hydrochloride] came in with an IC50 on MAO-B above 300000 nM.
In the case of `CCCCOc1cc(CCNCC(=O)N(C)C)ccc1C.Cl` [2-[2-(3-Butoxy-4-methylphenyl)-ethylamino]-N,N-dimethylacetamide hydrochloride], the IC50 is 700 nM in the assay with TTXs sodium channels and 10000 nM with L-type calcium channels. The “% protection 10 mg/kg p.o.” value with mice (mice, MES) is given as 40%.
`CCCCOc1cccc(CCNCC(=O)N2CCCC2)c1` [2-[2-(3-Butoxyphenyl)-ethylamino]-1-pyrrolidin-1-yl-ethanone hydrochloride]: the IC50 in the assay with TTXs sodium channels worked out at 2100 nM.
Same read-out and setting: with `CCCCOc1cccc(CCNC(C)(C)C(=O)N(C)C)c1` [2-[2-(3-Butoxyphenyl)-ethylamino]-2,N,N-trimethylpropanamide hydrochloride] the figure was 700 nM.
With `CCCCOc1cccc(CCNCC(=O)N(CCCC)CCCC)c1` [2-[2-(3-Butoxyphenyl)-ethylamino]-N,N-dibutylacetamide hydrochloride], the results for the IC50 in the assay with TTXs sodium channels and with L-type calcium channels were 1200 nM and 1800 nM, respectively.
For `CCCCOc1cccc(CCNCC(=O)N(CC)CC)c1` [2-[2-(3-Butoxyphenyl)-ethylamino]-N,N-diethylacetamide hydrochloride], the figures for the half-maximal inhibitory concentration (IC50) with TTXs sodium channels and in the assay with L-type calcium channels were 600 nM and 6700 nM, respectively.
With `CCCCOc1cccc(CCNC(C)C(=O)N(C)C)c1.Cl` (stereo not shown) [2-[2-(3-Butoxyphenyl)-ethylamino]-N,N-dimethylpropanamide hydrochloride], the IC50 with TTXs sodium channels is 1100 nM; against MAO-B, above 300000 nM. The ED50 with mice (mice, MES, p.o.) stood at 6.5 mg/kg. Further, the “% protection 10 mg/kg p.o.” value with mice (mice, MES) is 60%.
Regarding `CCCCOc1cccc(CCNCC(=S)N(C)C)c1` [2-[2-(3-Butoxyphenyl)-ethylamino]-N,N-dimethylthioacetamide hydrochloride], the IC50 with TTXs sodium channels stood at 1200 nM; in the assay on L-type calcium channels, 7600 nM.
The corresponding values for `CCCCOc1cccc(CCNCC(=O)N(CCC)CCC)c1` [2-[2-(3-Butoxyphenyl)-ethylamino]-N,N-dipropylacetamide hydrochloride] are 500 nM and 1100 nM.
Consider `CCCCOc1cccc(CCNCC(=O)NC)c1.Cl` [2-[2-(3-Butoxyphenyl)-ethylamino]-N-methylacetamide hydrochloride], for which the ED50 in the assay on mice (mice, MES, p.o.) was 12.1 mg/kg. Also, the “% protection 10 mg/kg p.o.” value in the assay with mice (mice, MES) is recorded as 30%. At MAO-B, this compound registered an IC50 of 110000 nM.
Regarding `CCCCSc1cccc(CCNCC(=O)N(C)C)c1` [2-[2-(3-Butylthiophenyl)-ethylamino]-N,N-dimethylacetamide hydrochloride], the half-maximal inhibitory concentration (IC50) with L-type calcium channels was determined as 7200 nM.
On to `CCCCCCOc1cccc(CCNCC(=O)N(C)C)c1.Cl` [2-[2-(3-Hexyloxyphenyl)-ethylamino]-N,N-dimethylacetamide hydrochloride], for which the IC50 in the assay with TTXs sodium channels is 500 nM; in the assay with L-type calcium channels it was 4000 nM. The ED50 in the assay with mice (mice, MES, p.o.) is 4.6 mg/kg. The “% protection 10 mg/kg p.o.” value with mice (mice, MES) was 100%.
Turning to `CCCCCOc1cccc(CCNCC(=O)N(C)C)c1.Cl` [2-[2-(3-Pentyloxyphenyl)-ethylamino]-N,N-dimethylacetamide hydrochloride], the IC50 worked out at 500 nM in the assay on TTXs sodium channels, 8300 nM in the assay with L-type calcium channels, 700 nM in assay [1] (setting [2]) and 2900 nM in assay [1] (setting [3]). Besides, the ED50 in the assay with mice stood at 2.8 mg/kg. Further, the “% protection 10 mg/kg p.o.” value in the assay with mice (mice, MES) came to 100%. In assay [1], the Ki is 500 nM.
Take `CCCCCOc1cccc(CCNCC(=O)N(CCC)CCC)c1` [2-[2-(3-Pentyloxyphenyl)-ethylamino]-N,N-dipropylacetamide hydrochloride]: the figures for the 50% inhibitory concentration (IC50) with TTXs sodium channels and in the assay with L-type calcium channels were 1100 nM and 6900 nM, respectively.
`CN(C)C(=O)CNCCc1cccc(OCCCC(F)(F)F)c1` [2-{2-[3-(4,4,4-Trifluorobutoxy)phenyl]-ethylamino}-N,N-dimethylacetamide hydrochloride]: the IC50 with L-type calcium channels turned out to be 9300 nM.

The term IC50 denotes the concentration needed to halve the response being measured.
